According to PubChem BioAssay AID248 (DTP/NCI, 2004):
Where “and” joins values, the source holds several entries; their conditions need not be identical. Equal values may be shown once. Toxic doses and inconclusive results are not listed. No stated cut-off is given here; in the data, active means T/C of 150% or more; inactive means T/C below 125%.

Test system: L1210 leukemia ip in BDF1 mice, survival T/C
Assay: NCI In Vivo Anticancer Drug Screen. Data for tumor model L1210 Leukemia (intraperitoneal) in B6D2F1 (BDF1) mice
Conditions: endpoint: mean survival time, higher = longer survival
Summary of the method: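 In this screen, tumor-bearing mice given compound are compared to those given vehicle, and their survival values are reported as a treated-to-control quotient.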

[1] = dose: 100.0 mg/kg/injection, schedule: Q04DX003 (ip), vehicle: other
[2] = dose: 200.0 mg/kg/injection, schedule: Q04DX003 (ip), vehicle: other
[3] = dose: 400.0 mg/kg/injection, schedule: Q04DX003 (ip), vehicle: other
[4] = dose: 100.0 mg/kg/injection, schedule: Q04DX003 (ip), vehicle: Klucel (hydroxypropylcellulose) (HPC)
[5] = dose: 200.0 mg/kg/injection, schedule: Q04DX003 (ip), vehicle: Klucel (hydroxypropylcellulose) (HPC)
[6] = dose: 100.0 mg/kg/injection, schedule: Q04DX003 (ip), vehicle: saline with Tween-80
[7] = dose: 200.0 mg/kg/injection, schedule: Q04DX003 (ip), vehicle: saline with Tween-80
[8] = dose: 400.0 mg/kg/injection, schedule: Q04DX003 (ip), vehicle: saline with Tween-80
[9] = dose: 200.0 mg/kg/injection, schedule: Q01DX009 (ip), vehicle: Klucel (hydroxypropylcellulose) (HPC)
[10] = dose: 400.0 mg/kg/injection, schedule: Q01DX009 (ip), vehicle: Klucel (hydroxypropylcellulose) (HPC)
[11] = dose: 400.0 mg/kg/injection, schedule: Q04DX003 (ip), vehicle: Klucel (hydroxypropylcellulose) (HPC)
[12] = dose: 12.5 mg/kg/injection, schedule: Q01DX009 (ip), vehicle: Klucel (hydroxypropylcellulose) (HPC)
[13] = dose: 25.0 mg/kg/injection, schedule: Q01DX009 (ip), vehicle: Klucel (hydroxypropylcellulose) (HPC)
[14] = dose: 25.0 mg/kg/injection, schedule: Q04DX003 (ip), vehicle: Klucel (hydroxypropylcellulose) (HPC)
[15] = dose: 50.0 mg/kg/injection, schedule: Q04DX003 (ip), vehicle: Klucel (hydroxypropylcellulose) (HPC)
[16] = dose: 100.0 mg/kg/injection, schedule: Q01DX009 (ip), vehicle: Klucel (hydroxypropylcellulose) (HPC)
[17] = dose: 50.0 mg/kg/injection, schedule: Q01DX009 (ip), vehicle: Klucel (hydroxypropylcellulose) (HPC)

Measured: T/C

O=C(O)C(Cc1ccccc1)NS(=O)(=O)Cc1ccccc1 (configuration not stated)
inactive: dose: 100.0 mg/kg/injection, schedule: Q01DX001 (ip), vehicle: other 100 % of control | [1] 96 % of control | dose: 200.0 mg/kg/injection, schedule: Q01DX001 (ip), vehicle: other 102 % of control | [2] 93 % of control | dose: 400.0 mg/kg/injection, schedule: Q01DX001 (ip), vehicle: other 100 % of control | [3] 93 % of control

CC(=O)SC1CS(=O)(=O)CC1SC(C)=O (configuration not stated)
inactive: [4] 93 % of control | [5] 101 % of control

CC(=O)Nc1nc2[nH]ccc2c(=O)[nH]1
inactive: dose: 75.0 mg/kg/injection, schedule: Q01DX001 (ip), vehicle: other 106 % of control | dose: 150.0 mg/kg/injection, schedule: Q01DX001 (ip), vehicle: other 104 % of control | dose: 300.0 mg/kg/injection, schedule: Q01DX001 (ip), vehicle: other 103 % of control

OC1CCCC/C1=C/C=C/c1ccccc1 (configuration not stated)
inactive: [6] 89 % of control and 97 % of control | [7] 92 % of control | [8] 90 % of control and 94 % of control

Cc1ccccc1/[N+]([O-])=C/c1ccccc1
inactive: dose: 100.0 mg/kg/injection, schedule: Q01DX001 (ip), vehicle: Klucel (hydroxypropylcellulose) (HPC) 104 % of control | [4] 103 % of control | dose: 200.0 mg/kg/injection, schedule: Q01DX001 (ip), vehicle: Klucel (hydroxypropylcellulose) (HPC) 104 % of control | [9] 93 % of control | [5] 102 % of control | dose: 400.0 mg/kg/injection, schedule: Q01DX001 (ip), vehicle: Klucel (hydroxypropylcellulose) (HPC) 101 % of control | [10] 104 % of control | [11] 102 % of control

CCOC(=O)n1cnc2nc(N)nc(Cl)c21
inactive: dose: 50.0 mg/kg/injection, schedule: Q01DX001 (ip), vehicle: saline 103 % of control | dose: 100.0 mg/kg/injection, schedule: Q01DX001 (ip), vehicle: saline 105 % of control | dose: 200.0 mg/kg/injection, schedule: Q01DX001 (ip), vehicle: saline 100 % of control | dose: 400.0 mg/kg/injection, schedule: Q01DX001 (ip), vehicle: saline 122 % of control

CCCCCCCCCCCCCCCCCC(=O)OCCC(C)CCCC(C)C (configuration not stated)
inactive: [1] 96 % of control | [2] 98 % of control | [3] 88 % of control

CCCOP(=O)(OCCC)C(OC(=O)C(C)(C)SC(=S)CCC)=C(C)C
inactive: [6] 97 % of control | [7] 100 % of control | [8] 94 % of control

O=C(O)CCC(NC(=O)OCc1ccccc1)C(=O)O (configuration not stated)
inactive: dose: 100.0 mg/kg/injection, schedule: Q01DX009 (ip), vehicle: saline with Tween-80 100 % of control | [4] 103 % of control | [1] 98 % of control | [6] 104 % of control and 95 % of control | dose: 200.0 mg/kg/injection, schedule: Q01DX009 (ip), vehicle: saline with Tween-80 98 % of control | [5] 99 % of control | [2] 102 % of control | [7] 101 % of control and 92 % of control | dose: 400.0 mg/kg/injection, schedule: Q01DX009 (ip), vehicle: saline with Tween-80 98 % of control | [11] 91 % of control | [3] 98 % of control | [8] 101 % of control and 104 % of control

COc1ccccc1N1CCN(CCc2c[nH]c3cc4c(cc23)OCO4)CC1
inactive: dose: 3.12 mg/kg/injection, schedule: Q01DX009 (ip), vehicle: Klucel (hydroxypropylcellulose) (HPC) 103 % of control | dose: 6.25 mg/kg/injection, schedule: Q01DX009 (ip), vehicle: Klucel (hydroxypropylcellulose) (HPC) 97 % of control and 110 % of control | [12] 106 % of control and 111 % of control and 120 % of control | dose: 12.5 mg/kg/injection, schedule: Q04DX003 (ip), vehicle: Klucel (hydroxypropylcellulose) (HPC) 94 % of control | [13] 89 % of control | dose: 25.0 mg/kg/injection, schedule: Q01DX015 (ip), vehicle: carboxymethylcellulose (CMC) 102 % of control and 106 % of control | [14] 102 % of control | dose: 50.0 mg/kg/injection, schedule: Q01DX015 (ip), vehicle: carboxymethylcellulose (CMC) 104 % of control | [15] 105 % of control | [16] 112 % of control | dose: 100.0 mg/kg/injection, schedule: Q01DX015 (ip), vehicle: carboxymethylcellulose (CMC) 118 % of control | [4] 102 % of control

CN=NCc1ccccc1
inactive: dose: 90.0 mg/kg/injection, schedule: Q04DX002 (ip), vehicle: saline with Tween-80 106 % of control | dose: 100.0 mg/kg/injection, schedule: Q04DX002 (ip), vehicle: saline with Tween-80 108 % of control and 122 % of control | dose: 133.0 mg/kg/injection, schedule: Q04DX002 (ip), vehicle: saline with Tween-80 120 % of control | dose: 200.0 mg/kg/injection, schedule: Q04DX002 (ip), vehicle: saline with Tween-80 106 % of control and 111 % of control | dose: 300.0 mg/kg/injection, schedule: Q04DX002 (ip), vehicle: saline with Tween-80 117 % of control

NC(=O)c1cc(NC(=O)c2ccc(C(=O)Nc3cc(C(N)=O)cc(C4=NCCN4)c3)cc2)cc(C2=NCCN2)c1
inactive: dose: 4.0 mg/kg/injection, schedule: Q01DX015 (ip), vehicle: methylcellulose (MC) 103 % of control | dose: 8.0 mg/kg/injection, schedule: Q01DX015 (ip), vehicle: methylcellulose (MC) 92 % of control | dose: 16.0 mg/kg/injection, schedule: Q01DX015 (ip), vehicle: methylcellulose (MC) 105 % of control | dose: 62.5 mg/kg/injection, schedule: Q01DX015 (ip), vehicle: methylcellulose (MC) 116 % of control | dose: 125.0 mg/kg/injection, schedule: Q01DX015 (ip), vehicle: methylcellulose (MC) 117 % of control

CCCCCCCCCC(=O)N/N=C/c1ccccc1Cl
inactive: [12] 112 % of control | [13] 113 % of control | [17] 104 % of control

O=C(CCNNC(=O)c1ccncc1)NCc1ccccc1
inactive: [13] 101 % of control | [14] 101 % of control | [17] 110 % of control | [15] 114 % of control | [16] 97 % of control | [4] 95 % of control | [9] 101 % of control | [5] 86 % of control | [10] 101 % of control | [11] 95 % of control

Cc1ccc(S(=O)(=O)N(C)c2ccc(C#N)cc2F)cc1
inactive: dose: 100.0 mg/kg/injection, schedule: Q04DX003 (ip), vehicle: saline 102 % of control | dose: 200.0 mg/kg/injection, schedule: Q04DX003 (ip), vehicle: saline 98 % of control | dose: 400.0 mg/kg/injection, schedule: Q04DX003 (ip), vehicle: saline 102 % of control

O=C(O)C1CCCCC1C(=O)Nc1cccc(C(F)(F)F)c1 (configuration not stated)
inactive: dose: 12.5 mg/kg/injection, schedule: Q01DX009 (ip), vehicle: saline with Tween-80 102 % of control | dose: 25.0 mg/kg/injection, schedule: Q01DX009 (ip), vehicle: saline with Tween-80 101 % of control | dose: 50.0 mg/kg/injection, schedule: Q01DX009 (ip), vehicle: saline with Tween-80 88 % of control and 92 % of control | [6] 102 % of control | [7] 92 % of control
